Patent publication US8716521B2 (priority 2008, dated 2014)
Structures can show the parent of a compound that is named as a salt. Where two headings read alike, the source gives them in different places.

Columns and labels:
[1] = aqueous solution in the narrow pH range of solubility
[2] = Stability in solution at 1 mg/mL, effect of pH (vinyl sulfone generation); type: physicochemical; details: 1 mg/mL in 0.1 M citrate buffer
Procedure: A stability study was performed by monitoring vinyl sulfone generation. Canfosfamide hydrochloride was dissolved at 1 mg/mL into 0.1 M citrated buffer from pH 4.5 to pH 6.5. The solutions were incubated at 25° C. for 24 hours. Vinyl sulfone generation was monitored.

[3] = not given; remark: listed apart in the source
[4] = Vinyl sulfone degradation on titration with NaOH
[5] = physchem
[6] = Dissolution rate and vinyl sulfone generation during compounding at different temperatures; type: physicochemical; details: for dissolution time: 50 mL batch size
Source text: The following items are some critical issues for the compounding of the drug product. • If the solution pH is higher than target pH, it can be titrated with 1.0 NHCL to the target pH. If the pH is too low, it will not be possible to back titrate with NaOH due to the sensibility of canfosfamide hydrochloride to alkaline environment. • Due to the acidity of the drug substance, the rate of dissolution of drug substance influences the pH of the compounding solution. A quick dissolution could reduce the pH faster and therefore reduce the time of exposure of the drug to high pH. […] The solution was then analyzed by HPLC.
An additional study of two liter batch size was conducted. Canfosfamide hydrochloride was dissolved into three batches of pH 6.5, 0.1 M citrate buffer and monitored at different temperatures; 5° C., 20° C. and 40° C. […] In the second batch at 20° C. (room temperature), the drug was totally dissolved after 20 minutes. […] The third batch consisted of adding drug at room temperature and allowing the temperature to increase to 40° C. over 90 minutes. […] These experiments support controlling the compounding procedure at room temperature until all drug is dissolved and filtered.

[7] = pH and osmolality of 50 mg/mL solution in citrate buffer

## N[C@@H](CCC(=O)N[C@@H](CS(=O)(=O)CCOP(=O)(N(CCCl)CCCl)N(CCCl)CCCl)C(=O)N[C@@H](C(=O)O)c1ccccc1)C(=O)O [Canfosfamide]
[1]
  time aqueous formulations are stable before decomposition products are observed: 6 to 12 h

## N[C@@H](CCC(=O)N[C@@H](CS(=O)(=O)CCOP(=O)(N(CCCl)CCCl)N(CCCl)CCCl)C(=O)N[C@@H](C(=O)O)c1ccccc1)C(=O)O [canfosfamide hydrochloride]
[2]; pH 4.5, 6 hrs
  Percent vinyl sulfone at 25° C.: 0.1%
[2]; pH 4.5, 24 hrs
  Percent vinyl sulfone at 25° C.: 0.4%
[2]; pH 5.0, 6 hrs
  Percent vinyl sulfone at 25° C.: 0.2%
[2]; pH 5.0, 24 hrs
  Percent vinyl sulfone at 25° C.: 1.1%
[2]; pH 5.5, 6 hrs
  Percent vinyl sulfone at 25° C.: 0.6%
[2]; pH 5.5, 24 hrs
  Percent vinyl sulfone at 25° C.: 2.9%
[2]; pH 6.0, 6 hrs
  Percent vinyl sulfone at 25° C.: 1.7%
[2]; pH 6.0, 24 hrs
  Percent vinyl sulfone at 25° C.: 8.2%
[2]; pH 6.5, 6 hrs
  Percent vinyl sulfone at 25° C.: 6.6%
[2]; pH 6.5, 24 hrs
  Percent vinyl sulfone at 25° C.: 24.2%
3 Month, bulk solution 50 mg/mL at pH 4.6, data is ± 2%
  % Purity 25° C.: 69%
Day 0, bulk solution 50 mg/mL at pH 4.6, data is ± 2%
  % Purity 25° C.: 92%
Day 3, bulk solution 50 mg/mL at pH 4.6, data is ± 2%
  % Purity 25° C.: 93%
Day 7, bulk solution 50 mg/mL at pH 4.6, data is ± 2%
  % Purity 25° C.: 89%
Day 28, bulk solution 50 mg/mL at pH 4.6, data is ± 2%
  % Purity 25° C.: 84%
Day l, bulk solution 50 mg/mL at pH 4.6, data is ± 2%
  % Purity 25° C.: 89%
[3]; 0.1 M citrate buffer at pH 6.5
  amount dissolved by citrate buffer: approximately 100 mg/mL
[3]; aqueous
  pH at which soluble: above 4.2
  pH at which stability is limited: > 5.0
[4]; 50 mg/mL in pH 4.3 citrate buffer
  content of vinyl sulfone before titration: 0.64%
[4]; 50 mg/mL in pH 4.3 citrate buffer titrated with 0.1 N NaOH to pH 4.5
  content of vinyl sulfone after titration: 1.3%
[4]; 50 mg/mL in pH 4.3 citrate buffer titrated with 1.0 N NaOH to pH 4.5
  content of vinyl sulfone after titration: 6.5%
[5]; citrate buffer, pH 5.5, aqueous buffer
  solubility: 174 mg/mL
[5]; water
  solubility: ~2 mg/mL
[6]; 5° C.
  dissolution time: 45 min
[6]; room temperature
  dissolution time: 25 min
[6]; during dissolution, HPLC
  vinyl sulfone generated at 5° C. versus room temperature: not significantly different
[6]; two liter batch, pH 6.5 0.1 M citrate buffer, 5° C., after 80 minutes
  dissolution observation: minor particles were observed
[6]; two liter batch, pH 6.5 0.1 M citrate buffer, 20° C. (room temperature)
  time to total dissolution: 20 min
[6]; two liter batch, temperature increased from room temperature to 40° C. over 90 minutes
  vinyl sulfone generated: higher than the two previous batches
[7]; 50 mg/mL dissolved in 0.1 M citrate buffer at pH 6.5
  pH of solution: about 4.6
[7]; 50 mg/mL in 100 mM citrate buffer
  osmolality: about 400 mM
